Reference: ChEMBL document CHEMBL5096175, “An insight into the medicinal attributes of berberine derivatives: A review” (Bioorg Med Chem, 2021)
In brackets after ≈: the same amount, converted by molar mass.

Tests used:
Escherichia coli [1] = experiment: Antibacterial activity against Escherichia coli assessed as inhibition of bacterial growth incubated for 24 hrs by micro broth dilution method; type: functional
[2] = Antioxidant activity assessed as ABTS radical cation scavenging activity incubated for 10 mins under dark condition; type: functional
[3] = Antioxidant activity assessed as DPPH radical scavenging potential measured for 30 mins optical density based analysis; type: functional
Acetylcholinesterase = Acetylcholinesterase (Homo sapiens, UniProt P22303); experiment: Inhibition of acetylcholinesterase (unknown origin) using acetylthiocholine iodide as substrate incubated for 10 mins by Ellman's colorimetric method
Acetylcholinesterase, sequence (P22303 whole entry): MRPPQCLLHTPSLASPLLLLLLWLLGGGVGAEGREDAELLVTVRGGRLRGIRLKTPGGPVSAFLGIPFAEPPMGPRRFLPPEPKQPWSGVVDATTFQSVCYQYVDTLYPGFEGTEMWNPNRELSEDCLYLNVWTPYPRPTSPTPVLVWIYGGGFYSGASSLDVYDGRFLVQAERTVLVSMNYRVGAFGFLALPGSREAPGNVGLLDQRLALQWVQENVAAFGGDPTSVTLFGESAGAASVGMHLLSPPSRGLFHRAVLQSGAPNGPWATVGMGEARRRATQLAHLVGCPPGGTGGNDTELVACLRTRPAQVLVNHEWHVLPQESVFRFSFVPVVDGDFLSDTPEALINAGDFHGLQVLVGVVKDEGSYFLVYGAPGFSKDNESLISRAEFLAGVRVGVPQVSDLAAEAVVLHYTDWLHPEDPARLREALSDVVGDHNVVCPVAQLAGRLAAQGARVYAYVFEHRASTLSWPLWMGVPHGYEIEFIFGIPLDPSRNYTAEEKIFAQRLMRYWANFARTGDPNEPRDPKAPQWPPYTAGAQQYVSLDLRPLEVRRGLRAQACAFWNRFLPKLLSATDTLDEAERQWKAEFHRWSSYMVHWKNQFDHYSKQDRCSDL

[4] = target: Amine oxidase [flavin-containing] B (Homo sapiens, UniProt P27338); experiment: Inhibition of human MAO-B preincubated for 30 mins followed by substrate addition and measured for 10 to 40 mins by fluorescence based assay
Amine oxidase [flavin-containing] B, sequence (P27338 whole entry): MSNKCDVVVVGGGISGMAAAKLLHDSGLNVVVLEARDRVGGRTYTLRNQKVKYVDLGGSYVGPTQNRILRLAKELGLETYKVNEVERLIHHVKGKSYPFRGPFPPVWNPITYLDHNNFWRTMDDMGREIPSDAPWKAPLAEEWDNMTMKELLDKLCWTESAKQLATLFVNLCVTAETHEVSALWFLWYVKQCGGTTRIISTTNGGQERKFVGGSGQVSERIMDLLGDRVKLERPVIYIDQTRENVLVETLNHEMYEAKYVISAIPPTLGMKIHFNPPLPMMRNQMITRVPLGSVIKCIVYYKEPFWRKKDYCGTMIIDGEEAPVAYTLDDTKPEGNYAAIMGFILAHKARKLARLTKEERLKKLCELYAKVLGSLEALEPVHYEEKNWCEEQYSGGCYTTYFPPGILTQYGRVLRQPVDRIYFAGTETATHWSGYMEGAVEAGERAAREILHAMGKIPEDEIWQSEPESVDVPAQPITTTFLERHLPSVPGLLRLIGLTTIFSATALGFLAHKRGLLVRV

Brucella abortus = experiment: Antibacterial activity against Brucella abortus by serial dilution method; type: functional
Vibrio cholerae = experiment: Antibacterial activity against Vibrio cholerae by serial dilution method; type: functional
HEK-293T = experiment: Antiinflammatory activity against HEK-293T cells assessed as inhibition of TNF-alpha induced NF-kappaB activation at 5 uM preincubated for 2 hrs followed by TNFalpha stimulation for 6 hrs by dual-luciferase reporter assay relative to control; type: functional; conditions: Homo sapiens, time 8 hrs
HCT-116 = experiment: Antiproliferative activity against human HCT-116 cells assessed as inhibition of cell proliferation incubated for 48 hrs by MTT assay; type: functional, cell-based; conditions: HCT-116, 48 h
LS174T = experiment: Antiproliferative activity against human LS174T cells assessed as inhibition of cell proliferation incubated for 48 hrs by MTT assay; type: functional, cell-based
SW-620 = experiment: Antiproliferative activity against human SW620 cells assessed as inhibition of cell proliferation incubated for 48 hrs by MTT assay; type: functional, cell-based; conditions: SW-620, 48 h
SGC-7901 = experiment: Antiproliferative activity against human SGC-7901 cells assessed as inhibition of cell proliferation incubated for 48 hrs by MTT assay; type: functional, cell-based; conditions: SGC-7901, 48 h
ECa-109 cell line = experiment: Antiproliferative activity against human Eca-109 cells assessed as inhibition of cell proliferation incubated for 48 hrs by MTT assay; type: functional, cell-based; conditions: ECa-109, 48 h
MKN-28 = experiment: Antiproliferative activity against human MKN-28 cells assessed as inhibition of cell proliferation incubated for 48 hrs by MTT assay; type: functional, cell-based; conditions: MKN-28, 48 h
HCT-8 = experiment: Antiproliferative activity against human HCT-8 cells assessed as inhibition of cell proliferation incubated for 48 hrs by MTT assay; type: functional, cell-based; conditions: HCT-8, 48 h
CCRF S-180 = experiment: Antiproliferative activity against mouse CCRF S-180 cells assessed as inhibition of cell proliferation incubated for 48 hrs by MTT assay; type: functional, cell-based; conditions: CCRF S-180, 48 h
[5] = Antioxidant activity assessed as DPPH radical scavenging activity measured after 25 mins by UV visible spectrophotometeric analysis; type: functional
[6] = Antioxidant activity assessed as ABTS radical scavenging activity incubated for 10 mins by UV spectrophotometeric analysis; type: functional
HeLa = experiment: Cytotoxicity against human HeLa cells assessed as inhibition of cell growth by Sulforhodamine B colorimetric assay; type: functional, cell-based
Chitinase B = Chitinase B (Serratia marcescens, UniProt P11797); experiment: Inhibition of Serratia marcescens chitinase B expressed in Escherichia coli BL21(DE3) cells using MU-(GlcNAc)2 as a substrate assessed as inhibition constant incubated for 25 mins by dixon plot analysis
Chitinase B, sequence (P11797 whole entry): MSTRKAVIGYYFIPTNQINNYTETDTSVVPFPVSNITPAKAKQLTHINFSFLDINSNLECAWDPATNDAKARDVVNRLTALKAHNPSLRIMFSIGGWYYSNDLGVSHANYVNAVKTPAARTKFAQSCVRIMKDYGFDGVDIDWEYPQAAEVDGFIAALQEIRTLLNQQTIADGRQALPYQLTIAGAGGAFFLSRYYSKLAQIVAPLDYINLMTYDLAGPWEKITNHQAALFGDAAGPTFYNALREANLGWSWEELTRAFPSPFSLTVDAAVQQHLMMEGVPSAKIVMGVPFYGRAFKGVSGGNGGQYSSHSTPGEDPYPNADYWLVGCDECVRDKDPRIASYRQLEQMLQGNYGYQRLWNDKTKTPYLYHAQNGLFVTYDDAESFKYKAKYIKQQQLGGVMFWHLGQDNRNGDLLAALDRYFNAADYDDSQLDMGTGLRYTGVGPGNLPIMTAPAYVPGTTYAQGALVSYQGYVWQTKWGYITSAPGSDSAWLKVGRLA

Staphylococcus aureus [7] = experiment: Antibacterial activity against Staphylococcus aureus CICC 23656 assessed as inhibition of bacterial growth incubated for 24 hrs by broth microdilution method; type: functional
Staphylococcus aureus [8] = experiment: Antibacterial activity against methicillin-resistant Staphylococcus aureus ATCC 700699 assessed as inhibition of bacterial growth incubated for 24 hrs by broth microdilution method; type: functional
Clostridium perfringens = experiment: Antibacterial activity against Clostridium perfringens CICC 22949 assessed as inhibition of bacterial growth incubated for 24 hrs by broth microdilution method; type: functional
Streptococcus pyogenes = experiment: Antibacterial activity against Streptococcus pyogenes CICC 10356 assessed as inhibition of bacterial growth incubated for 24 hrs by broth microdilution method; type: functional
Escherichia coli [9] = experiment: Antibacterial activity against Escherichia coli CICC 10389 assessed as inhibition of bacterial growth incubated for 24 hrs by broth microdilution method; type: functional
Shigella dysenteriae = experiment: Antibacterial activity against Shigella dysenteriae CICC 23829 assessed as inhibition of bacterial growth incubated for 24 hrs by broth microdilution method; type: functional
Salmonella enteritidis = experiment: Antibacterial activity against Salmonella enteritidis CICC 24119 assessed as inhibition of bacterial growth incubated for 24 hrs by broth microdilution method; type: functional, Salmonella enterica subsp. enterica serovar Enteritidis; conditions: Salmonella enterica
Pseudomonas aeruginosa [10] = experiment: Antibacterial activity against Pseudomonas aeruginosa CICC 10419 assessed as inhibition of bacterial growth incubated for 24 hrs by broth microdilution method; type: functional
Staphylococcus aureus [11] = experiment: Antibacterial activity against methicillin-resistant Staphylococcus aureus assessed as inhibition of bacterial growth incubated for 24 hrs by CLSI based broth microdilution method; type: functional
Pseudomonas aeruginosa [12] = experiment: Antibacterial activity against Pseudomonas aeruginosa 27853 assessed as inhibition of bacterial growth incubated for 24 hrs by CLSI based broth microdilution method; type: functional
Candida parapsilosis = experiment: Antifungal activity against Candida parapsilosis ATCC 22019 assessed as inhibition of fungal growth incubated for 24 hrs; type: functional; conditions: Lodderomyces parapsilosis
Candida albicans = experiment: Antifungal activity against Candida albicans ATCC 90023 assessed as inhibition of fungal growth incubated for 24 hrs; type: functional
Ca-Ski = experiment: Anticancer activity against human Ca-Ski cells assessed as inhibition of cell growth by Sulforhodamine B colorimetric assay; type: functional, cell-based
Influenza A virus = experiment: Antiviral activity against influenza virus A A/PR/8/34 infected in MDCK cells assessed as inhibition of virus-induced cytopathic effect measured after 48 hrs by SRB bioassay; type: functional, organism-based; conditions: A/PR/8/34, MDCK
[13] = Cytotoxicity against MDCK cells incubated for 48 hrs by SRB bioassay; type: toxicity, cell-based, Canis lupus familiaris; conditions: dog
[14] = Therapeutic index, ratio of CC50 for cytotoxicity against MDCK cells to IC50 for antiviral activity against influenza virus A A/PR/8/34; type: toxicity, cell-based; conditions: dog, read-out: TI

## COc1cc(/C=C(\C#N)n2cc([N+](=O)[O-])nc2C)c2c(c1OCc1ccccc1F)CN1CCc3cc4c(cc3C1C2)OCO4 (stereo unspecified)
Escherichia coli [1]
  MIC: 3 µM (≈ 1.83 µg/mL)

## COc1cc(CNc2nc3ccccc3s2)c2cc3[n+](cc2c1O)CCc1cc2c(cc1-3)OCO2
[2]
  IC50: 8.48 µM
[3]
  IC50: 25.4 µM

## COc1ccc2cc3[n+](cc2c1OC)CCc1cc(O)c(O)cc1-3
Acetylcholinesterase
  IC50: 7.8 µM
[4]
  IC50: 9.06 µM

## COc1cc(C=C(C#N)C#N)c2cc3[n+](cc2c1O)CCc1cc2c(cc1-3)OCO2.[Cl-]
Brucella abortus
  MIC: 64 µg/mL
Vibrio cholerae
  MIC: 64 µg/mL

## COc1ccc2cc3[n+](cc2c1OC(=O)C1(C)CCCCC1)CCc1cc2c(cc1-3)OCO2
HEK-293T
  inhibition at 5 µM: > 90%

## COc1ccc2cc3[n+](cc2c1OC(=O)c1ccc(C(C)(C)C)cc1)CCc1cc2c(cc1-3)OCO2
HEK-293T
  inhibition at 5 µM: > 90%

## COc1ccc2c(CC(=O)ON[C@@H](CSCc3ccccc3)C(=O)OCc3ccccc3)c3[n+](cc2c1OC)CCc1cc2c(cc1-3)OCO2
HCT-116
  IC50: 15 µM
LS174T
  IC50: 15 µM
SW-620
  IC50: 15 µM
SGC-7901
  IC50: 15 µM
ECa-109 cell line
  IC50: 15 µM
MKN-28
  IC50: 15 µM
HCT-8
  IC50: 15 µM
CCRF S-180
  IC50: 15 µM

## COc1ccc2cc3[n+](cc2c1OCCCCCn1ccc2ccccc21)CCc1cc2c(cc1-3)OCO2
[5]
  IC50: 17.1 µM
[6]
  IC50: 9.64 µM

## CCCC(CCC)C(=O)Oc1c(OC)ccc2cc3[n+](cc12)CCc1cc2c(cc1-3)OCO2
HEK-293T
  inhibition at 5 µM: > 90%

## COc1cc(CN2CCN(c3cccc4ccccc34)CC2)c2cc3[n+](cc2c1O)CCc1cc2c(cc1-3)OCO2
HeLa
  CC50: 478 µM
  IC50: 8.31 µM

## COCCCCC(=O)Oc1c(OC)ccc2cc3[n+](cc12)CCc1cc2c(cc1-3)OCO2
Chitinase B
  Ki: 0.15 µM

## COc1ccc2cc3[n+](cc2c1OCc1ccc([N+](=O)[O-])cc1)CCc1cc2c(cc1-3)OCO2
Staphylococcus aureus [7]
  MIC: 1.71 µM
Staphylococcus aureus [8]
  MIC: 1.71 µM
Clostridium perfringens
  MIC: 1.71 µM
Streptococcus pyogenes
  MIC: 1.71 µM
Escherichia coli [9]
  MIC: 1.71 µM
Shigella dysenteriae
  MIC: 1.71 µM
Salmonella enteritidis
  MIC: 1.71 µM
Pseudomonas aeruginosa [10]
  MIC: 1.71 µM

## COc1ccc2cc3[n+](cc2c1OS(=O)(=O)c1ccc(C(F)(F)F)cc1)CCc1cc2c(cc1-3)OCO2
HEK-293T
  inhibition at 5 µM: > 90%

## CCCCOc1c(OC)cc(/C=C2\SC(=O)NC2=O)c2c1CN1CCc3cc4c(cc3C1C2)OCO4 (stereo unspecified)
Staphylococcus aureus [11]
  MIC: 8 µM (≈ 4.07 µg/mL)
Pseudomonas aeruginosa [12]
  MIC: 8 µM (≈ 4.07 µg/mL)
Candida parapsilosis
  MIC: 8 µM (≈ 4.07 µg/mL)
Candida albicans
  MIC: 16 µM (≈ 8.14 µg/mL)

## COc1cc(CN2CCN(C(=O)c3ccco3)CC2)c2cc3[n+](cc2c1O)CCc1cc2c(cc1-3)OCO2
Ca-Ski
  CC50: 344 µM
  IC50: 6.11 µM

## COc1ccc(N2CCN(CCCCCOc3c(OC)ccc4cc5[n+](cc34)CCc3cc4c(cc3-5)OCO4)CC2)c(OC)c1.[Cl-]
Influenza A virus
  IC50: 35.2 µg/mL
[13]
  CC50 at 48 h: 3890 µg/mL
[14]
  selectivity ratio: 111
